Our source for the IC50 values is PMC8222254, “Self-assembly of an anion receptor with metal-dependent kinase inhibition and potent in vitro anti-cancer properties” (Nature Communications, 2021).

“And” between values parts separate entries of the source, which are not always exact repeats. Equal entries are not always repeated. Where two headings read alike, the source gives them in different places.

This assay concerns ARPE-19 non-cancer cells. The assay is described as follows: Chemosensitivity, 96 h continuous exposure, MTT assay. It is filed as cell-based, human. From the text: All cell lines were purchased from and maintained as monolayers as described by the American Type Culture Collection with the exception of the p53^+/+ and p53^−/− isogenic clones of HCT116 human colorectal adenocarcinoma cells which were a kind gift from Professor Bert Vogelstein[54]. GBM1 cells were established from a primary GBM tumour by Heiko Wurdak and colleagues[32],[33]. Non-cancerous adult brain neural progenitor (NP1) cells were derived from a patient undergoing surgery to treat epilepsy[32],[33]. Cell culture and growth media for NP1 and GBM1 cells were as described[32],[33]. The response of cells following a continuous 96-h exposure to test compounds and platinates was determined using the MTT assay. Potency was recorded as the IC50 and the selectivity index (SI) was defined as the ratio of IC50 values for non-cancer to cancer cell lines with values >1 representing selectivity for cancer cells as opposed to non-cancer cells.
All cell lines used were maintained at low passage in antibiotic-free media. HT29, DLD-1, HCT116 p53^+/+ and HCT116 p53^−/− are all colorectal adenocarcinoma cell lines derived from different individuals and harbour different combinations of oncogenic lesions (except for the HCT116 isogenic cancer cell clones that are genetically identical except for p53 status). PSN-1, BxPC-3 and MiaPaCa2 are pancreatic carcinoma cell lines and A549 and H460 are lung carcinoma cell lines. HT29, DLD-1, PSN-1, BxPC-3, A549 and H460 cell lines were cultured in RPMI-1640 growth media (Sigma) containing 2 mM L-glutamine, 1 mM sodium pyruvate and 10% foetal bovine serum (FBS). HCT116 (p53^+/+ and p53^−/−) and MiaPaCa2 cell lines were cultured in Dulbecco’s Modified Eagle’s Medium (Sigma), 2 mM L-glutamine and 10% FBS. The ARPE-19 retinal epithelial non-cancer cell line was cultured in DMEM/F12 media (Gibco), 2 mM L-glutamine, 1 mM sodium pyruvate and 10% FBS. The MCF10A non-cancerous human breast epithelial cell line was cultured in Minimal Essential Media Eagle (Sigma), 2 mM L-glutamine, 1 mM sodium pyruvate, 10% FBS and 1x non-essential amino acids (NEAA). NP1 and GBM1 cells were cultured on plasticware coated with poly-L-ornithine (5 µg/ml) and laminin (2.4 µg/ml)[32],[33]. NP1 cells were grown in DMEM/F12 media (Gibco) supplemented with 5% FBS, 20 ng/ml hFGF, 20 ng/ml rhEGF, 0.5x B-27 supplement (Gibco), 0.5x N-2 supplement (Gibco) and 1x GLUTAMAX (Gibco). GBM1 cells were cultured in Neurobasal media (Gibco) supplemented with 40 ng/ml hFGF, 40 ng/ml rhEGF, 0.5x B-27 supplement (Gibco) and 0.5x N-2 supplement (Gibco).
[L2(Metal)3]^6+ and all the other self-assembling complexes were freshly formed by adding DMSO to individual components and mixing together by pipetting. These were then further diluted in cell culture media such that the final DMSO concentration that cells were exposed to was 0.2% (vehicle control). Cisplatin, oxaliplatin and carboplatin were dissolved in phosphate buffered saline. Cell lines were seeded into 96 well plates at 2 × 10^3 cells per well and incubated overnight at 37 °C. GBM1 cancer stem-like cells were seeded at 3 × 10^3 cells per well and NP1 neural progenitors were seeded at 1.5 × 10^3 cells per well. The following day, media was removed and replaced with fresh media containing test compounds at a range of concentrations. Cells were incubated with test compounds for a further 96 h after which the media was removed and replaced with fresh media (200 μl/well). MTT was added (20 μl at 5 mg/ml) and cells were incubated for a further 4 h. Media and MTT were removed and formazan crystals were dissolved in 150 μl of DMSO and the absorbance of the resulting solution determined at 540 nm. Dose response curves were constructed, and the concentration required to reduce cell growth by 50% (IC50) determined.
Background: Tetrazolium assays rely on reduction of a dye to a coloured formazan, in cell work by metabolically active cells.

As usually defined, the IC50 is the midpoint of a concentration-inhibition curve. For the compound `[Mn+2].[Mn+2].[Mn+2].c1ccc(-c2csc(NCCN(CCNc3nc(-c4ccccn4)cs3)CCNc3nc(-c4ccccn4)cs3)n2)nc1.c1ccc(-c2csc(NCCN(CCNc3nc(-c4ccccn4)cs3)CCNc3nc(-c4ccccn4)cs3)n2)nc1` [[L2Mn3]6+], the IC50 by setting is: (ARPE-19, 96 h, MTT, individual run, read-out: IC50 values for each replicate) 5140 nM and 2100 nM and 2120 nM and 2080 nM; (ARPE-19, 96 h, MTT, mean of at least 3 independent experiments, read-out: Mean IC50) 2860 nM; (ARPE-19 non-cancer, read-out: Mean IC50 values) 2860 nM.
